Reference: PubChem BioAssay AID248 (DTP/NCI, 2004)
Values joined by “and” are separate entries in the source; they are usually repeats but may differ in a detail not shown here. Equal values may be shown once. Toxic doses and inconclusive results are not listed. Rule as the data show it: active = T/C of 150% or more; inactive = T/C below 125%.

Test system: L1210 leukemia ip in BDF1 mice, survival T/C
Test: NCI In Vivo Anticancer Drug Screen. Data for tumor model L1210 Leukemia (intraperitoneal) in B6D2F1 (BDF1) mice
Conditions: endpoint: mean survival time, higher = longer survival
Outline: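 Tumor was transplanted into mice, which were then dosed with test compound or vehicle alone. Survival was recorded for each group, and the treated figure was expressed relative to the control figure.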

[1] = dose: 100.0 mg/kg/injection, schedule: Q04DX003 (ip), vehicle: Klucel (hydroxypropylcellulose) (HPC)
[2] = dose: 100.0 mg/kg/injection, schedule: Q04DX003 (ip), vehicle: saline with Tween-80
[3] = dose: 200.0 mg/kg/injection, schedule: Q04DX003 (ip), vehicle: Klucel (hydroxypropylcellulose) (HPC)
[4] = dose: 200.0 mg/kg/injection, schedule: Q04DX003 (ip), vehicle: saline with Tween-80
[5] = dose: 400.0 mg/kg/injection, schedule: Q04DX003 (ip), vehicle: saline with Tween-80
[6] = dose: 50.0 mg/kg/injection, schedule: Q01DX001 (ip), vehicle: saline
[7] = dose: 100.0 mg/kg/injection, schedule: Q01DX001 (ip), vehicle: saline
[8] = dose: 400.0 mg/kg/injection, schedule: Q01DX001 (ip), vehicle: saline
[9] = dose: 50.0 mg/kg/injection, schedule: Q01DX009 (ip), vehicle: Klucel (hydroxypropylcellulose) (HPC)
[10] = dose: 100.0 mg/kg/injection, schedule: Q01DX009 (ip), vehicle: Klucel (hydroxypropylcellulose) (HPC)
[11] = dose: 150.0 mg/kg/injection, schedule: Q01DX009 (ip), vehicle: Klucel (hydroxypropylcellulose) (HPC)
[12] = dose: 200.0 mg/kg/injection, schedule: Q01DX001 (ip), vehicle: saline
[13] = dose: 200.0 mg/kg/injection, schedule: Q01DX009 (ip), vehicle: Klucel (hydroxypropylcellulose) (HPC)
[14] = dose: 400.0 mg/kg/injection, schedule: Q01DX009 (ip), vehicle: Klucel (hydroxypropylcellulose) (HPC)
[15] = dose: 100.0 mg/kg/injection, schedule: Q01DX009 (ip), vehicle: saline with Tween-80
[16] = dose: 200.0 mg/kg/injection, schedule: Q01DX009 (ip), vehicle: saline with Tween-80

Measured: T/C

c1ccc(C2C(c3ccccc3)N2c2ccccc2)cc1 (configuration not stated)
inactive: dose: 50.0 mg/kg/injection, schedule: Q01DX001 (ip), vehicle: carboxymethylcellulose (CMC) 105 % of control | dose: 100.0 mg/kg/injection, schedule: Q01DX001 (ip), vehicle: carboxymethylcellulose (CMC) 113 % of control | [1] 92 % of control | [2] 97 % of control | dose: 200.0 mg/kg/injection, schedule: Q01DX001 (ip), vehicle: carboxymethylcellulose (CMC) 113 % of control | [3] 94 % of control | [4] 90 % of control | dose: 400.0 mg/kg/injection, schedule: Q01DX001 (ip), vehicle: carboxymethylcellulose (CMC) 103 % of control | dose: 400.0 mg/kg/injection, schedule: Q04DX003 (ip), vehicle: Klucel (hydroxypropylcellulose) (HPC) 92 % of control | [5] 87 % of control

O=C1CCCC(=O)NNC(=O)Nc2ccc(cc2)-c2ccc(cc2)NC(=O)NN1
inactive: [6] 104 % of control | [7] 104 % of control | [8] 96 % of control

O=C(O)CCC(=O)NCCN(CCNC(=O)CCC(=O)O)C(=O)CCC(=O)O
inactive: dose: 100.0 mg/kg/injection, schedule: Q01DX001 (ip), vehicle: other 105 % of control | dose: 100.0 mg/kg/injection, schedule: Q01DX009 (ip), vehicle: water 100 % of control | dose: 100.0 mg/kg/injection, schedule: Q04DX003 (ip), vehicle: water 105 % of control | dose: 200.0 mg/kg/injection, schedule: Q01DX001 (ip), vehicle: other 100 % of control | dose: 200.0 mg/kg/injection, schedule: Q01DX009 (ip), vehicle: water 97 % of control | dose: 200.0 mg/kg/injection, schedule: Q04DX003 (ip), vehicle: water 98 % of control | dose: 400.0 mg/kg/injection, schedule: Q01DX001 (ip), vehicle: other 98 % of control | dose: 400.0 mg/kg/injection, schedule: Q01DX009 (ip), vehicle: water 97 % of control | dose: 400.0 mg/kg/injection, schedule: Q04DX003 (ip), vehicle: water 102 % of control

CC(=O)CC(=O)C(F)(F)F.CC(=O)CC(=O)C(F)(F)F.CC(=O)CC(=O)C(F)(F)F.CC(=O)CC(=O)C(F)(F)F.[Hf]
inactive: dose: 100.0 mg/kg/injection, schedule: Q04DX002 (ip), vehicle: Klucel (hydroxypropylcellulose) (HPC) 104 % of control | dose: 200.0 mg/kg/injection, schedule: Q04DX002 (ip), vehicle: Klucel (hydroxypropylcellulose) (HPC) 93 % of control | dose: 400.0 mg/kg/injection, schedule: Q04DX002 (ip), vehicle: Klucel (hydroxypropylcellulose) (HPC) 96 % of control

CCN(CC)c1ccc(N=Cc2ccccc2S(=O)(=O)O)cc1
inactive: dose: 6.25 mg/kg/injection, schedule: Q01DX009 (ip), vehicle: saline 95 % of control | dose: 6.25 mg/kg/injection, schedule: Q04DX003 (ip), vehicle: saline sonified 97 % of control | dose: 12.5 mg/kg/injection, schedule: Q01DX009 (ip), vehicle: saline 96 % of control | dose: 12.5 mg/kg/injection, schedule: Q04DX003 (ip), vehicle: saline sonified 103 % of control | dose: 25.0 mg/kg/injection, schedule: Q01DX009 (ip), vehicle: saline 93 % of control | dose: 25.0 mg/kg/injection, schedule: Q04DX003 (ip), vehicle: saline sonified 110 % of control

C=C(Br)CNC(=O)Nc1c2ccccc2nc2ccccc12
inactive: dose: 12.5 mg/kg/injection, schedule: Q01DX009 (ip), vehicle: Klucel (hydroxypropylcellulose) (HPC) 86 % of control | dose: 25.0 mg/kg/injection, schedule: Q01DX009 (ip), vehicle: Klucel (hydroxypropylcellulose) (HPC) 88 % of control | [9] 89 % of control | [10] 92 % of control | [11] 89 % of control | dose: 300.0 mg/kg/injection, schedule: Q01DX009 (ip), vehicle: Klucel (hydroxypropylcellulose) (HPC) 91 % of control

NNc1n[nH]c(=O)n1N
inactive: [1] 113 % of control | [3] 100 % of control

Cc1ccccc1OCC(Cl)CN(C)C (configuration not stated)
inactive: [7] 100 % of control | [12] 102 % of control

COc1ccc2c(C)c(C)[nH]c2c1
inactive: [6] 101 % of control | [7] 109 % of control | [12] 115 % of control | [8] 104 % of control

CN(C)C(=S)OCC(C)(C)C
inactive: [2] 113 % of control | [4] 100 % of control | [5] 97 % of control

COC(=O)c1ccc2c(ccc[n+]2C)c1
inactive: dose: 37.5 mg/kg/injection, schedule: Q04DX003 (ip), vehicle: saline with Tween-80 96 % of control | dose: 75.0 mg/kg/injection, schedule: Q01DX001 (ip), vehicle: saline 97 % of control | dose: 75.0 mg/kg/injection, schedule: Q04DX003 (ip), vehicle: saline with Tween-80 96 % of control | dose: 150.0 mg/kg/injection, schedule: Q01DX001 (ip), vehicle: saline 90 % of control | dose: 150.0 mg/kg/injection, schedule: Q04DX003 (ip), vehicle: saline with Tween-80 89 % of control

Cn1c(=O)c(-c2ccccc2)[n+]([O-])c2ccccc21
inactive: [6] 104 % of control | [7] 101 % of control | [12] 101 % of control | [8] 101 % of control

CCOC(=O)c1ccc(NC(=O)Nc2ccc(SC)cc2)cc1
inactive: [10] 98 % of control | [13] 95 % of control | [14] 104 % of control

CCCCSCCN
inactive: dose: 75.0 mg/kg/injection, schedule: Q01DX009 (ip), vehicle: Klucel (hydroxypropylcellulose) (HPC) 95 % of control | [11] 93 % of control

O=C(/C=C/c1ccccc1)Nc1cc([N+](=O)[O-])ccc1O
inactive: [9] 97 % of control | [10] 94 % of control and 87 % of control | [13] 94 % of control and 97 % of control | [14] 87 % of control

COC(=O)c1cc(C)n(C)c(=O)c1CNS(=O)(=O)c1ccc(C)cc1
inactive: [15] 99 % of control | [2] 97 % of control | [16] 100 % of control | [4] 105 % of control | dose: 400.0 mg/kg/injection, schedule: Q01DX009 (ip), vehicle: saline with Tween-80 99 % of control | [5] 108 % of control

COc1cc2nn(-c3ccccc3N)nc2cc1OC
inactive: dose: 50.0 mg/kg/injection, schedule: Q01DX009 (ip), vehicle: saline with Tween-80 98 % of control | [15] 90 % of control | [16] 102 % of control

Oc1ccccc1C1OCCO1
inactive: [7] 107 % of control | [12] 95 % of control | [8] 95 % of control

CC(Oc1ccc(Br)cc1Br)C(=O)O (configuration not stated)
inactive: [2] 93 % of control | [4] 93 % of control | [5] 95 % of control

N#CC(O)Cc1ccccc1 (configuration not stated)
inactive: dose: 2.5 mg/kg/injection, schedule: Q01DX009 (ip), vehicle: saline 95 % of control | dose: 5.0 mg/kg/injection, schedule: Q01DX009 (ip), vehicle: saline 90 % of control | dose: 10.0 mg/kg/injection, schedule: Q01DX009 (ip), vehicle: saline 97 % of control

Cc1ccc(S(=O)(=O)OC2C(C(O)CO)OC3OC(C)(C)OC32)cc1 (configuration not stated)
inactive: dose: 100.0 mg/kg/injection, schedule: Q04DX002 (ip), vehicle: saline with Tween-80 90 % of control | dose: 200.0 mg/kg/injection, schedule: Q04DX002 (ip), vehicle: saline with Tween-80 97 % of control | dose: 400.0 mg/kg/injection, schedule: Q04DX002 (ip), vehicle: saline with Tween-80 101 % of control
